Reference: ChEMBL document CHEMBL1145498, “A systematic interaction map of validated kinase inhibitors with Ser/Thr kinases” (Proc Natl Acad Sci U S A, 2007)

molecular target: Calcium/calmodulin-dependent protein kinase type 1G (Homo sapiens) (UniProt Q96NX5)
Sequence (Q96NX5 whole entry): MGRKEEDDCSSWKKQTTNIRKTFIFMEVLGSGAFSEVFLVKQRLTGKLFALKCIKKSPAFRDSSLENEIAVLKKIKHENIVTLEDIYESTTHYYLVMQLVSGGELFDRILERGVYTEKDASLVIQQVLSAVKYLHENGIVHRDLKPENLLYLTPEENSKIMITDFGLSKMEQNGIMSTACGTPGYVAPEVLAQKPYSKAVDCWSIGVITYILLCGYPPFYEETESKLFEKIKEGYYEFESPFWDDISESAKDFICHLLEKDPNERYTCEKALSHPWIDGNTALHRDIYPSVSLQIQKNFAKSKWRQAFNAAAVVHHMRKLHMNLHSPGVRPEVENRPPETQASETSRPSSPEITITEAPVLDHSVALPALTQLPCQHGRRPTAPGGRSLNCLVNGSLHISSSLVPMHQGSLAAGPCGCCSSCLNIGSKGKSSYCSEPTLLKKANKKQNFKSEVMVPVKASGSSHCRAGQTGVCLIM

Structure (SMILES) | ΔTm
O=c1cc(-c2ccc(O)cc2)oc2cc(O)cc(O)c12 | 0.9 °C
O=C(O)c1cc(NCc2cc(O)ccc2O)ccc1O | -0.1 °C
CC(C)N(CCO)c1nc(Nc2cccc(Cl)c2)c2ncn(C(C)C)c2n1 | -0.1 °C

The remaining lines, values ahead:

ΔTm | Structure (SMILES)
2 °C | O=C1c2ccccc2-c2n[nH]c3cccc1c23
0.7 °C | Cc1cc2ncc(-c3ccccc3)nc2cc1C

molecular target: Cyclin-dependent kinase 6 (Homo sapiens) (UniProt Q00534)
Sequence (Q00534 whole entry): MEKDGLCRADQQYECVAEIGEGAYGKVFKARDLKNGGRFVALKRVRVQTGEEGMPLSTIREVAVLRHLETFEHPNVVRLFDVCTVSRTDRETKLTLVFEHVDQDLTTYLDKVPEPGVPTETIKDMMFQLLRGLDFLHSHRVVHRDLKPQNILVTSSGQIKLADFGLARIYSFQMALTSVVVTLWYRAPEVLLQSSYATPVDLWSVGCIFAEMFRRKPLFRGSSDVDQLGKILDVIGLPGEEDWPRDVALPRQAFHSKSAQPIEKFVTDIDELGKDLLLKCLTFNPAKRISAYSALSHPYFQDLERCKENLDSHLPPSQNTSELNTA

Structure (SMILES) | ΔTm
O=c1cc(-c2ccc(O)cc2)oc2cc(O)cc(O)c12 | 0.4 °C
O=C(O)c1cc(NCc2cc(O)ccc2O)ccc1O | -0.3 °C
CC(C)N(CCO)c1nc(Nc2cccc(Cl)c2)c2ncn(C(C)C)c2n1 | 0.2 °C

Second part, the compound after the results:

ΔTm | Structure (SMILES)
0.3 °C | O=C1c2ccccc2-c2n[nH]c3cccc1c23
0.4 °C | Cc1cc2ncc(-c3ccccc3)nc2cc1C

molecular target: Dual specificity protein kinase CLK3 (Homo sapiens) (UniProt P49761)
Sequence (P49761 whole entry, looked up): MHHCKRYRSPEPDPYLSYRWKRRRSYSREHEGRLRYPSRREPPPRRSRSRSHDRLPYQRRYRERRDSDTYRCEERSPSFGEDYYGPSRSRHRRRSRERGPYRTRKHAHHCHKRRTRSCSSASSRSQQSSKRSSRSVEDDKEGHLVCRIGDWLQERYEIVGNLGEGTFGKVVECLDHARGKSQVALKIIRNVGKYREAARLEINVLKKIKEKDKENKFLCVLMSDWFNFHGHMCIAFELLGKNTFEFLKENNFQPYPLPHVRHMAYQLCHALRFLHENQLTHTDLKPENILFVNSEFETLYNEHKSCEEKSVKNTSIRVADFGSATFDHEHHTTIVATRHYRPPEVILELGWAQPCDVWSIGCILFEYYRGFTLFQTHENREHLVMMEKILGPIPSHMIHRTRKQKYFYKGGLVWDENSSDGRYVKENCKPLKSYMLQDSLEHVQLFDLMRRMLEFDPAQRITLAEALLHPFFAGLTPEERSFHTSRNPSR

Structure (SMILES) | ΔTm
O=c1cc(-c2ccc(O)cc2)oc2cc(O)cc(O)c12 | 3.1 °C
O=C(O)c1cc(NCc2cc(O)ccc2O)ccc1O | 0.2 °C
CC(C)N(CCO)c1nc(Nc2cccc(Cl)c2)c2ncn(C(C)C)c2n1 | 4.2 °C

The remaining lines, values ahead:

ΔTm | Structure (SMILES)
2 °C | O=C1c2ccccc2-c2n[nH]c3cccc1c23
0 °C | Cc1cc2ncc(-c3ccccc3)nc2cc1C

molecular target: T1, Mitogen-activated protein kinase kinase kinase 5 (Homo sapiens) (UniProt Q99683)
T1 sequence (whole entry): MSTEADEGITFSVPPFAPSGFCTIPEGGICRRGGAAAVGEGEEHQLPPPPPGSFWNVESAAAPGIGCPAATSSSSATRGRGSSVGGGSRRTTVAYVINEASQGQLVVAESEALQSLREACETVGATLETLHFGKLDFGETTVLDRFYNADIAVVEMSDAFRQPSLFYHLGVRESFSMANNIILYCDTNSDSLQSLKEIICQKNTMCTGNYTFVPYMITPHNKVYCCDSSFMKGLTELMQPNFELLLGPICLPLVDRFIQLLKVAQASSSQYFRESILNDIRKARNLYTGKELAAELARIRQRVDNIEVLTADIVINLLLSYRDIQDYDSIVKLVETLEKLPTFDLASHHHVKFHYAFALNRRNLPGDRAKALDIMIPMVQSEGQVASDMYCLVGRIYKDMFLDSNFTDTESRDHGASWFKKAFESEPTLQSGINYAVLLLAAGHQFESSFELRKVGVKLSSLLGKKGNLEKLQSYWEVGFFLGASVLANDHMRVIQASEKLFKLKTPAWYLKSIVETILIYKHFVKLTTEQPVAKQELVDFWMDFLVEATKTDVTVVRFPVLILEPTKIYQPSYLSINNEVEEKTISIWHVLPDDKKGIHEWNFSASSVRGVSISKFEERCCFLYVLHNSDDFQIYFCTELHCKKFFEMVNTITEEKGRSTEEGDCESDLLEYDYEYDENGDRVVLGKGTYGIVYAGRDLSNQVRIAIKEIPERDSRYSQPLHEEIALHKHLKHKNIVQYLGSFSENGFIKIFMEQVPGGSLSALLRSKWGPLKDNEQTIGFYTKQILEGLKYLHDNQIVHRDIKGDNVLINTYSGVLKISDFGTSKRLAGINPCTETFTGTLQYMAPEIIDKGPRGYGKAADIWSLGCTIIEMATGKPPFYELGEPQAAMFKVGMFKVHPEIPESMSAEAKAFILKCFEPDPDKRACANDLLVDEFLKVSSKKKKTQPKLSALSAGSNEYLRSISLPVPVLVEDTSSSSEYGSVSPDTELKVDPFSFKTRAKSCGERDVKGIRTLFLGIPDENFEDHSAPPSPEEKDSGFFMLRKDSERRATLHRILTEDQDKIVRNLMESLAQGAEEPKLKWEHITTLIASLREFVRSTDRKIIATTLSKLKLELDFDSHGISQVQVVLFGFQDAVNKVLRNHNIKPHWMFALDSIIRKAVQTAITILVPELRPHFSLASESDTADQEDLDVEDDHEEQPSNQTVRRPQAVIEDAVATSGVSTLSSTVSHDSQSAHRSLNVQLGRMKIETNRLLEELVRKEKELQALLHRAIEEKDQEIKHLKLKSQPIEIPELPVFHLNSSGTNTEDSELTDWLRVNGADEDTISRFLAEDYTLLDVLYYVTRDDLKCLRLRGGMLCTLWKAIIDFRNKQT

Structure (SMILES) | ΔTm
O=c1cc(-c2ccc(O)cc2)oc2cc(O)cc(O)c12 | 1.1 °C
O=C(O)c1cc(NCc2cc(O)ccc2O)ccc1O | -0.1 °C
CC(C)N(CCO)c1nc(Nc2cccc(Cl)c2)c2ncn(C(C)C)c2n1 | 0.4 °C

Now from value to compound:

ΔTm | Structure (SMILES)
8.8 °C | O=C1c2ccccc2-c2n[nH]c3cccc1c23
0.3 °C | Cc1cc2ncc(-c3ccccc3)nc2cc1C

molecular target: Mitogen-activated protein kinase 6 (Homo sapiens) (UniProt Q16659)
Sequence (Q16659 whole entry): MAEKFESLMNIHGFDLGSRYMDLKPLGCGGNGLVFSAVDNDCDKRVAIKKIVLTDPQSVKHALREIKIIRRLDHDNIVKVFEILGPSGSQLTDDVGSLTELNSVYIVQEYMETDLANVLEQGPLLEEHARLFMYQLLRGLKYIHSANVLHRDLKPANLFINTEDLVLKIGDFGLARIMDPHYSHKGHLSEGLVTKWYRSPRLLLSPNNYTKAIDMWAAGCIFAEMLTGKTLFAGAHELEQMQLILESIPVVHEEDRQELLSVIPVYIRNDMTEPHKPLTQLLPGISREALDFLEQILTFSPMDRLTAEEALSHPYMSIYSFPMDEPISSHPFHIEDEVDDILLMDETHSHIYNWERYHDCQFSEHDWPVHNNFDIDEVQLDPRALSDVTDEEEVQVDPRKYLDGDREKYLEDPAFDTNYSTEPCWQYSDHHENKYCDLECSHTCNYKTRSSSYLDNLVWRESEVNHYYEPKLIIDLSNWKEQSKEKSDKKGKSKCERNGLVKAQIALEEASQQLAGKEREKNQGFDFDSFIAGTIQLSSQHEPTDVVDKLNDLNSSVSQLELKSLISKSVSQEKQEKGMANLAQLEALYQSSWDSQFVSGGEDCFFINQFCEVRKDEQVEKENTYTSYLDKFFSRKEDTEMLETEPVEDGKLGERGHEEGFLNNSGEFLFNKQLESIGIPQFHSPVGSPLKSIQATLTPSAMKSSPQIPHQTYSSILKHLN

Structure (SMILES) | ΔTm
O=c1cc(-c2ccc(O)cc2)oc2cc(O)cc(O)c12 | 0.5 °C
O=C(O)c1cc(NCc2cc(O)ccc2O)ccc1O | -0.4 °C
CC(C)N(CCO)c1nc(Nc2cccc(Cl)c2)c2ncn(C(C)C)c2n1 | 0.1 °C

Further lines, results first:

ΔTm | Structure (SMILES)
0.5 °C | O=C1c2ccccc2-c2n[nH]c3cccc1c23
1 °C | Cc1cc2ncc(-c3ccccc3)nc2cc1C

molecular target: T2, Serine/threonine-protein kinase Nek2 (Homo sapiens) (UniProt P51955)
T2 sequence (whole entry): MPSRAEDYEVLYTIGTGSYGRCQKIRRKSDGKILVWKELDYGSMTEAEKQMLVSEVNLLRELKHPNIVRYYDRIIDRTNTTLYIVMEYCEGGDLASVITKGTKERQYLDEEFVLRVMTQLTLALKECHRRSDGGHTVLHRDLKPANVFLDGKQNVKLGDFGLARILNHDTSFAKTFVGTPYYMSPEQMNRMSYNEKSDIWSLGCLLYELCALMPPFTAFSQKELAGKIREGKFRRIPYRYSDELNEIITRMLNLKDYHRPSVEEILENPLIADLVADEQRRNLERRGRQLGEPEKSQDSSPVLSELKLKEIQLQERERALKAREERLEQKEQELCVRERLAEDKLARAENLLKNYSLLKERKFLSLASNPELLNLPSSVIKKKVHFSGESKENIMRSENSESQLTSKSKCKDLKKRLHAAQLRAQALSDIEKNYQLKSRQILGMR

Structure (SMILES) | ΔTm
O=c1cc(-c2ccc(O)cc2)oc2cc(O)cc(O)c12 | 1.4 °C
O=C(O)c1cc(NCc2cc(O)ccc2O)ccc1O | 0.7 °C
CC(C)N(CCO)c1nc(Nc2cccc(Cl)c2)c2ncn(C(C)C)c2n1 | 0.7 °C

More lines, now with the values ahead:

ΔTm | Structure (SMILES)
2.3 °C | O=C1c2ccccc2-c2n[nH]c3cccc1c23
2.1 °C | Cc1cc2ncc(-c3ccccc3)nc2cc1C

molecular target: Cyclin-dependent kinase 16 (Homo sapiens) (UniProt Q00536)
Sequence (Q00536 whole entry): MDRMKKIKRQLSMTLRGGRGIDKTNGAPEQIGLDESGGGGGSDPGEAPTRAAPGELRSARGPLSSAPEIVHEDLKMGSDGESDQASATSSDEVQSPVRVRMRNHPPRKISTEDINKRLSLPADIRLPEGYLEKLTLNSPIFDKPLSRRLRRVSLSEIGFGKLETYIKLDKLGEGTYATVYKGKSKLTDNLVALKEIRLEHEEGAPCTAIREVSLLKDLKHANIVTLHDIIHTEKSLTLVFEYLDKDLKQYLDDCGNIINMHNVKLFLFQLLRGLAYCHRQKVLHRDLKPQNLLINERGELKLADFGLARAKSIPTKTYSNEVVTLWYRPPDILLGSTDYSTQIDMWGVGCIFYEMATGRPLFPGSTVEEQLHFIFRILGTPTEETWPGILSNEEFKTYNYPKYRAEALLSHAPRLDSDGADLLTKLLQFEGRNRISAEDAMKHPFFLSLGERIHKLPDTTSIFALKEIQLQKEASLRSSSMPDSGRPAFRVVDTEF

Structure (SMILES) | ΔTm
O=c1cc(-c2ccc(O)cc2)oc2cc(O)cc(O)c12 | 1.2 °C
O=C(O)c1cc(NCc2cc(O)ccc2O)ccc1O | 0.1 °C
CC(C)N(CCO)c1nc(Nc2cccc(Cl)c2)c2ncn(C(C)C)c2n1 | 0.8 °C

More lines, now with the values ahead:

ΔTm | Structure (SMILES)
0.1 °C | O=C1c2ccccc2-c2n[nH]c3cccc1c23
0.3 °C | Cc1cc2ncc(-c3ccccc3)nc2cc1C

molecular target: Serine/threonine-protein kinase PLK1 (Homo sapiens) (UniProt P53350)
Sequence (P53350 whole entry): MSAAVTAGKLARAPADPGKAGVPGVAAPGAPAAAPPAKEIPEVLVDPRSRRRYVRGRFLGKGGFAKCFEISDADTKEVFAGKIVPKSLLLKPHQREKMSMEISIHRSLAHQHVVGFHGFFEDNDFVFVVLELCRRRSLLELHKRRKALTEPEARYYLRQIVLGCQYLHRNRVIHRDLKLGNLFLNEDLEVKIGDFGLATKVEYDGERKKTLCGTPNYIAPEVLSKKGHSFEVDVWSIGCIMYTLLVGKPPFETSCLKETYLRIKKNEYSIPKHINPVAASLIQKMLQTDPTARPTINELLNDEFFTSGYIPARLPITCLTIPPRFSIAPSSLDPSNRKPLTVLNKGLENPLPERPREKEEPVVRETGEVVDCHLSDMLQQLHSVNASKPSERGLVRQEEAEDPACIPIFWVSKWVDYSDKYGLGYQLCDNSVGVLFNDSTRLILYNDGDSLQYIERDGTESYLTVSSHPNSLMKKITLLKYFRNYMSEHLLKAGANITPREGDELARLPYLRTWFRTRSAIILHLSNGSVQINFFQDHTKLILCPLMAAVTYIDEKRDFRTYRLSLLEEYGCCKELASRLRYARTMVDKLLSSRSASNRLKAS

Structure (SMILES) | ΔTm
O=c1cc(-c2ccc(O)cc2)oc2cc(O)cc(O)c12 | 2 °C
O=C(O)c1cc(NCc2cc(O)ccc2O)ccc1O | 0.3 °C
CC(C)N(CCO)c1nc(Nc2cccc(Cl)c2)c2ncn(C(C)C)c2n1 | 3.3 °C

Second part, the compound after the results:

ΔTm | Structure (SMILES)
1.6 °C | O=C1c2ccccc2-c2n[nH]c3cccc1c23
0.7 °C | Cc1cc2ncc(-c3ccccc3)nc2cc1C

molecular target: Serine/threonine-protein kinase 10 (Homo sapiens) (UniProt O94804)
Sequence (O94804 whole entry, looked up): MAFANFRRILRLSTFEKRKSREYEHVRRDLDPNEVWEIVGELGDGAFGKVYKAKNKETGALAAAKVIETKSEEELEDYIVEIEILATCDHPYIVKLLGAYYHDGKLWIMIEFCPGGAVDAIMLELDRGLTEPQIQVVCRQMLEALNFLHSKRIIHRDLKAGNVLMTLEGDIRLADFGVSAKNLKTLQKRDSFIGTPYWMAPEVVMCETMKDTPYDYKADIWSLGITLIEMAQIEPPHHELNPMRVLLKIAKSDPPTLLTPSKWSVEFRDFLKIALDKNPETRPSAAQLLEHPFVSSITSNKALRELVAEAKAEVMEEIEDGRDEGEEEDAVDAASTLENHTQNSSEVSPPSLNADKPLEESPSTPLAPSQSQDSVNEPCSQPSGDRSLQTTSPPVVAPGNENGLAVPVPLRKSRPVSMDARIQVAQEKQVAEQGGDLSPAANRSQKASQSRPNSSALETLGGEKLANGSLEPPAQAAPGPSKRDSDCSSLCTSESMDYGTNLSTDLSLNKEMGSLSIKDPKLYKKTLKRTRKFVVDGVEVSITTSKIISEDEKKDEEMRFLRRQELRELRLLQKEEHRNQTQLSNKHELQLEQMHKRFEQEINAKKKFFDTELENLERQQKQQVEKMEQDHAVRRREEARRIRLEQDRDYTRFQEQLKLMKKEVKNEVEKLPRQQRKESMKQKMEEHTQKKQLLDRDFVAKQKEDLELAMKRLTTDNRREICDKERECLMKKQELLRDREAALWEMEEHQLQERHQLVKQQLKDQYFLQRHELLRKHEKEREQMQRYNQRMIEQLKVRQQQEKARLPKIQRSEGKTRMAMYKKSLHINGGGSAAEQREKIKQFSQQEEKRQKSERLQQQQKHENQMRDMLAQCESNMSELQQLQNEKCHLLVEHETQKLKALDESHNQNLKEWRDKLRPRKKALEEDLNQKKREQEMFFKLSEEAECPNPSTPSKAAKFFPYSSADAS

Structure (SMILES) | ΔTm
O=c1cc(-c2ccc(O)cc2)oc2cc(O)cc(O)c12 | 4 °C
O=C(O)c1cc(NCc2cc(O)ccc2O)ccc1O | -0.3 °C
CC(C)N(CCO)c1nc(Nc2cccc(Cl)c2)c2ncn(C(C)C)c2n1 | 3.3 °C

Now from value to compound:

ΔTm | Structure (SMILES)
2.8 °C | O=C1c2ccccc2-c2n[nH]c3cccc1c23
1 °C | Cc1cc2ncc(-c3ccccc3)nc2cc1C

molecular target: T3, Serine/threonine-protein kinase 4 (Homo sapiens) (UniProt Q13043)
T3 sequence (whole entry): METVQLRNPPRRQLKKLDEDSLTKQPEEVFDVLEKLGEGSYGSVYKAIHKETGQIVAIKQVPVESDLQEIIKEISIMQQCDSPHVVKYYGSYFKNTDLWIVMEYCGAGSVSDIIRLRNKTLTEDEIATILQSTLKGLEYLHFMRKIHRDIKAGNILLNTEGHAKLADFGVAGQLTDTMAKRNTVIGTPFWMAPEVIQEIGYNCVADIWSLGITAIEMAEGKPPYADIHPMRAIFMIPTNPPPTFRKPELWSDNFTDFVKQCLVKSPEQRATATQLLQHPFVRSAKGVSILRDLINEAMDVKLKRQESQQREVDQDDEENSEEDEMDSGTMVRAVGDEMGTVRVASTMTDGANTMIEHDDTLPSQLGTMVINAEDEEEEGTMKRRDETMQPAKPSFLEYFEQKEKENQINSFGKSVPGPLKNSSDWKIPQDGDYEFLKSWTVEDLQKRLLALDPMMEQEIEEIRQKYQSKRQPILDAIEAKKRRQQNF

Structure (SMILES) | ΔTm
O=c1cc(-c2ccc(O)cc2)oc2cc(O)cc(O)c12 | 2.8 °C
O=C(O)c1cc(NCc2cc(O)ccc2O)ccc1O | -0.6 °C
CC(C)N(CCO)c1nc(Nc2cccc(Cl)c2)c2ncn(C(C)C)c2n1 | 4.2 °C

The remaining lines, values ahead:

ΔTm | Structure (SMILES)
4.3 °C | O=C1c2ccccc2-c2n[nH]c3cccc1c23
2.2 °C | Cc1cc2ncc(-c3ccccc3)nc2cc1C
